The source of these data is ChEMBL document CHEMBL4673372, “1,2,3-triazole-thiazole hybrids: Synthesis, in vitro antimicrobial activity and antibiofilm studies” (Bioorg Med Chem Lett, 2021).

Data set [1] concerns Escherichia coli. Put plainly: Antibacterial activity against Escherichia coli MTCC 739 assessed as inhibition of bacterial growth by microtiter broth dilution method. It counts as functional. For orientation: Broth dilution looks for growth in wells or tubes with falling amounts of substance.
The test system of data set [2] is Micrococcus luteus. The data set can be described thus: Antibacterial activity against Micrococcus luteus MTCC 2470 assessed as inhibition of bacterial growth by microtiter broth dilution method. The format is functional.
In data set [3] the test system is Candida albicans. Put plainly: Inhibition of biofilm formation in Candida albicans MTCC 3017 incubated for 24 hrs by crystal violet staining based microtiter plate method. The format is functional, organism-based.
Data set [4] concerns Pseudomonas aeruginosa. The data set can be described thus: Inhibition of biofilm formation in Pseudomonas aeruginosa MTCC 2453 incubated for 24 hrs by crystal violet staining based microtiter plate method. The format is functional, organism-based.
Data set [5] has as its system Staphylococcus aureus. The data set can be described thus: Antibacterial activity against Staphylococcus aureus MTCC 96 assessed as inhibition of bacterial growth by microtiter broth dilution method. It counts as functional.
Data set [6] relates to Escherichia coli. Put plainly: Inhibition of biofilm formation in Escherichia coli MTCC 739 incubated for 24 hrs by crystal violet staining based microtiter plate method. The format is functional, organism-based.
Data set [7] deals with Raoultella planticola. Put plainly: Antibacterial activity against Klebsiella planticola MTCC 530 assessed as inhibition of bacterial growth by microtiter broth dilution method. It counts as functional.
Data set [8] has as its system Bacillus subtilis. The data set can be described thus: Antibacterial activity against Bacillus subtilis MTCC 121 assessed as inhibition of bacterial growth by microtiter broth dilution method. The format is functional.
In data set [9] the test system is Staphylococcus aureus. Put plainly: Bactericidal activity against Staphylococcus aureus MTCC 96. The format is functional.
In data set [10] the test system is Micrococcus luteus. Put plainly: Inhibition of biofilm formation in Micrococcus luteus MTCC 2470 incubated for 24 hrs by crystal violet staining based microtiter plate method. The format is functional, organism-based.
The subject of data set [11] is Pseudomonas aeruginosa. Put plainly: Antibacterial activity against Pseudomonas aeruginosa MTCC 2453 assessed as inhibition of bacterial growth by microtiter broth dilution method. The format is functional.
In data set [12] the test system is Bacillus subtilis. Put plainly: Inhibition of biofilm formation in Bacillus subtilis MTCC 121 incubated for 24 hrs by crystal violet staining based microtiter plate method. It counts as functional, organism-based.
In data set [13] the test system is Raoultella planticola. The data set can be described thus: Inhibition of biofilm formation in Klebsiella planticola MTCC 530 incubated for 24 hrs by crystal violet staining based microtiter plate method. It counts as functional, organism-based.
The test system of data set [14] is Raoultella planticola. Put plainly: Bactericidal activity against Klebsiella planticola MTCC 530. The format is functional.
Data set [15] relates to Staphylococcus aureus. The data set can be described thus: Inhibition of biofilm formation in Staphylococcus aureus MLS16 MTCC 2940 incubated for 24 hrs by crystal violet staining based microtiter plate method. The format is functional, organism-based.
Data set [16] concerns Staphylococcus aureus. Put plainly: Inhibition of biofilm formation in Staphylococcus aureus […] incubated for 24 hrs by crystal violet staining based microtiter plate method. It counts as functional, organism-based.
Data set [17] concerns Bacillus subtilis. Put plainly: Bactericidal activity against Bacillus subtilis MTCC 121. It counts as functional.
The test system of data set [18] is Staphylococcus aureus. Put plainly: Antibacterial activity against Staphylococcus aureus MLS16 MTCC 2940 assessed as inhibition of bacterial growth by microtiter broth dilution method. The format is functional.
Data set [19] concerns THP-1. The data set can be described thus: Cytotoxicity against human THP-1 cells assessed as reduction in cell viability at 200 uM by MTT assay. The format is cell-based. The following applies: thp-1, 200 µM. On the technique in general: Tetrazolium assays rely on reduction of a dye to a coloured formazan, in cell work by metabolically active cells.
Data set [20] relates to THP-1. Put plainly: Cytotoxicity against human THP-1 cells assessed as cell damage at 200 uM by LDH assay. The format is cell-based. The settings on record: thp-1, 200 µM.
A short description of data set [21]: Cytotoxicity against human THP-1 cells. It counts as cell-based.
Data set [22] in a line: Selectivity index, ratio of CC50 for human THP-1 cells to MIC for Staphylococcus aureus MTCC 96. The format is toxicity.
The subject of data set [23] is Pseudomonas aeruginosa. The data set can be described thus: Bactericidal activity against Pseudomonas aeruginosa MTCC 2453. It counts as functional.
The subject of data set [24] is Micrococcus luteus. The data set can be described thus: Bactericidal activity against Micrococcus luteus MTCC 2470. It counts as functional.

In brackets after ≈: the same amount, converted by molar mass.

For `COc1ccc(-n2cc(COc3ccc(/C=N/Nc4nc(-c5cc6cccc(Br)c6oc5=O)cs4)cc3)nn2)cc1`, the MIC (usually the lowest concentration that inhibits growth of the organism) was above 199 µM in [1]; above 199 µM in [2]; 6.1 µM (≈ 3.84 µg/mL) in data set [5]; 6.1 µM (≈ 3.84 µg/mL) in [7]; 6.1 µM (≈ 3.84 µg/mL) in data set [8]; above 199 µM in [11]. Besides, in [18], the MIC was above 199 µM. In addition, the half-maximal inhibitory concentration (IC50) (usually the concentration needed to halve the response being measured) in data set [3] was “Not Active”; in data set [4] it was “Not Active”; in data set [6], “Not Active”; in data set [10], “Not Active”; in [12] (Bacillus subtilis, MTCC 121, 24 h, read-out: IC50), 35.4 µM; in data set [13] (Klebsiella planticola, MTCC 530, 24 h, read-out: IC50), 42.3 µM. Further, the IC50 result in data set [15] was “Not Active”; in data set [16] (Staphylococcus aureus, MTCC 92, 24 h, read-out: IC50), 32.6 µM. Further, the MBC in [9], in data set [14] and in [17] was 12.3 µM (≈ 7.74 µg/mL) each time.

As for `COc1ccc(-n2cc(COc3ccc(/C=N/Nc4nc(-c5ccc(-c6ccccc6)cc5)cs4)cc3)nn2)cc1`, the Activity entry in data set [19] and in [20] was “Toxic” throughout. Besides, the MIC was above 224 µM in [1]; above 224 µM in [2]; 13.9 µM (≈ 7.77 µg/mL) in data set [5]; above 224 µM in [7]; 13.9 µM (≈ 7.77 µg/mL) in data set [8]; above 224 µM in [11]. In data set [18], the MIC is above 224 µM. For the same molecule, the MBC in [9] and in data set [17] was 27.9 µM (≈ 15.6 µg/mL) in each case. Half-maximal cytotoxicity in [21] (CC50) was put at 35.8 µM. The selectivity ratio in data set [22] was found to be 2.58.

In the case of `COc1ccc(-n2cc(COc3ccc(/C=N/Nc4nc(-c5ccc([N+](=O)[O-])cc5)cs4)cc3)nn2)cc1`, the Activity entry in [19] and in data set [20] was “Toxic” each time. For the same molecule, the MIC in data set [1] was above 237 µM; in [2] it was 14.7 µM (≈ 7.76 µg/mL); in data set [5], 14.7 µM (≈ 7.76 µg/mL); in [7] it was above 237 µM; in data set [8], 14.7 µM (≈ 7.76 µg/mL); in data set [11] it was 14.7 µM (≈ 7.76 µg/mL). Moreover, the MIC in [18] was above 237 µM. Further, the MBC (as a rule, the smallest concentration meeting the test's criterion for killing) in [23] was found to be 59.1 µM (≈ 31.2 µg/mL); in data set [9] it was 29.5 µM (≈ 15.6 µg/mL); in data set [24], 29.5 µM (≈ 15.6 µg/mL); in data set [17], 29.5 µM (≈ 15.6 µg/mL). Besides, the midpoint of cytotoxicity in data set [21], the CC50, lay at 37.9 µM. The selectivity ratio in data set [22] was 2.58.

Turning to `COc1ccc(-n2cc(COc3ccc(/C=N/Nc4nc(-c5ccc(Cl)cc5)cs4)cc3)nn2)cc1`, the Activity result in [19] and in data set [20] was “Toxic” each time. In addition, the MIC in data set [1] is above 242 µM; in [2], above 242 µM; in data set [5] it was 15 µM (≈ 7.76 µg/mL); in data set [7], above 242 µM; in [8], above 242 µM; in data set [11], above 242 µM. Moreover, the MIC in data set [18] is above 242 µM. The molecule further displayed an MBC in data set [9] of 30.2 µM (≈ 15.6 µg/mL). Half-maximal cytotoxicity in data set [21] (CC50) was put at 38.7 µM. For the same molecule, the selectivity ratio in [22] is 2.58.

Regarding `COc1ccc(-n2cc(COc3ccc(/C=N/Nc4nc(-c5ccccc5)cs4)cc3)nn2)cc1`, the MIC in [1], in [2], in data set [5], in data set [7], in data set [8] and in [11] was above 259 µM in each case. For the same molecule, in [18], the MIC is above 259 µM.

For `COc1ccc(-n2cc(COc3ccc(/C=N/Nc4nc(-c5ccc(F)cc5)cs4)cc3)nn2)cc1`, the MIC in data set [1], in data set [2], in data set [5], in data set [7], in data set [8] and in data set [11] was above 223 µM in each case. In addition, the MIC in data set [18] was above 223 µM.

As for `COc1ccc(-n2cc(COc3ccc(/C=N/Nc4nc(-c5ccc(C)cc5)cs4)cc3)nn2)cc1`, the Activity result in data set [19] and in data set [20] was “Toxic” throughout. Also, the MIC is above 252 µM in data set [1]; above 252 µM in data set [2]; 15.7 µM (≈ 7.8 µg/mL) in [5]; above 252 µM in data set [7]; above 252 µM in data set [8]; above 252 µM in data set [11]. Moreover, the MIC in data set [18] is above 252 µM. In data set [9], the MBC came out at 31.4 µM (≈ 15.6 µg/mL). In addition, the CC50 (usually the concentration that lowers cell viability or growth by half) in data set [21] turned out to be 40.3 µM. Further, the selectivity ratio in data set [22] turned out to be 2.57.

As for `COc1ccc(-c2csc(N/N=C/c3ccc(OCc4cn(-c5ccc(OC)cc5)nn4)cc3)n2)cc1`, the Activity entry in [19] and in data set [20] was “Toxic” each time. In addition, the MIC in data set [1] was above 244 µM; in data set [2] it was above 244 µM; in data set [5] it was 7.6 µM (≈ 3.9 µg/mL); in data set [7] it was above 244 µM; in [8], 7.6 µM (≈ 3.9 µg/mL); in data set [11], above 244 µM. Moreover, in data set [18], the MIC is above 244 µM. Also, the MBC in [9] and in [17] was 30.4 µM (≈ 15.6 µg/mL) throughout. Moreover, in data set [21], the CC50 came to 39 µM. Further, the selectivity ratio in data set [22] came out at 5.13.

`COc1ccc(-n2cc(COc3ccc(/C=N/Nc4nc(-c5cc6cc(Cl)cc(Cl)c6oc5=O)cs4)cc3)nn2)cc1`: the MIC in [1], in data set [2], in data set [5], in [7], in data set [8] and in data set [11] was above 202 µM each time. For the same molecule, the MIC in data set [18] was above 202 µM. Further, the IC50 entry in [3], in [4], in data set [6], in [10], in [12] and in data set [13] was “Not Active” throughout. The IC50 result in [15] and in data set [16] was “Not Active” each time.

In the case of `CCOc1cc(Br)cc2cc(-c3csc(N/N=C/c4ccc(OCc5cn(-c6ccc(OC)cc6)nn5)cc4)n3)c(=O)oc12`, the MIC in [1], in data set [2], in [5], in [7], in [8] and in [11] was above 186 µM throughout. In addition, in [18], the MIC was above 186 µM. Also, the IC50 result in [3], in data set [4], in [6], in [10], in data set [12] and in data set [13] was “Not Active” each time. Besides, the IC50 result in data set [15] and in data set [16] was “Not Active” throughout.

In the case of `COc1ccc(-n2cc(COc3ccc(/C=N/Nc4nc(-c5ccc(Br)cc5)cs4)cc3)nn2)cc1`, the Activity entry in [19] and in data set [20] was “Toxic” each time. Further, the MIC in [1] was above 223 µM; in data set [2], 13.8 µM (≈ 7.75 µg/mL); in data set [5] it was above 223 µM; in data set [7] it was above 223 µM; in data set [8], 13.8 µM (≈ 7.75 µg/mL); in [11], 27.7 µM (≈ 15.6 µg/mL). Further, the MIC in data set [18] was above 223 µM. For the same molecule, the MBC amounted to 111 µM (≈ 62.4 µg/mL) in [23], 27.7 µM (≈ 15.6 µg/mL) in [24] and 55.5 µM (≈ 31.2 µg/mL) in data set [17]. The molecule further showed a CC50 in [21] of 35.6 µM. For the same molecule, the selectivity ratio in data set [22] was 0.16.

For `CCOc1cccc2cc(-c3csc(N/N=C/c4ccc(OCc5cn(-c6ccc(OC)cc6)nn5)cc4)n3)c(=O)oc12`, the minimum inhibitory concentration (MIC) in [1], in data set [2], in data set [5], in data set [7], in data set [8] and in data set [11] was above 210 µM each time. Besides, the MIC in [18] is above 210 µM. Also, the IC50 result in data set [3], in data set [4], in data set [6], in data set [10], in data set [12] and in [13] was “Not Active” each time. Further, the IC50 entry in data set [15] and in data set [16] was “Not Active” each time.
